Results from patent EP4644375A1, “SUBSTITUTED HYDROQUINOLINES FOR THE TREATMENT OF GLIOBLASTOMA MULTIFORME” (Molius Saglik Teknolojileri Anonim Sirketi, priority 2024, dated 2025).

Tests used:
U87-MG human glioma cell = assay: Cell proliferation analysis (MTT); format: cell-based; settings: MTT; for activity at 10 µM / inhibition at 10 µM: Homo sapiens, U-87 MG, 48 h
Description: (§1) U87-MG and U138-MG human glioma cell, were incubated with 10% fetal bovine serum (FBS) (Gibco, 10500-064), 1% L-glutamine (Gibco, 25030-024), in a humidified incubator with 5% CO2 at 37 °C. The cells were contained in DMEM High Glucose (Gibco, 41966-029) supplemented with 1% penicillin-streptomycin (P/S) (Gibco 15140-122) solution. The cytotoxic effects of the target compounds on U87-MG and U138-MG cell lines were assessed using the MTT (Thiazolyl Blue Tetrazolium Bromide) method. 7×10^3 cells were seeded into a 96-well plate in 100 µl DMEM High Glucose 10% FBS and 1% P/S. 24 hours after cell incubation, each target compound was added at a dose of 10 µM and the drug treatment was carried out for two days. After the incubation period, 10 µL of MTT solution was added to each well (5 mg/ml in PBS). After 2 hours, MTT solutions were removed from the wells. Then, 100 µl DMSO was added, and mixed to dissolve the formazan crystals. Cell proliferation was analysed by measuring the absorbance of dissolved formazan at a wavelength of 570 nm.
(§2) IC50 values were determined using the same method as above wherein the cells were treated with the target compounds at different doses.

[1] = test system: U138-MG human glioma cell; assay: Cell proliferation analysis (MTT); format: cell-based; settings: MTT; for activity at 10 µM / inhibition at 10 µM: Homo sapiens, 48 h
Description: as §1, §2

| Compound | activity at 10 µM (U87-MG human glioma cell; 10 µM, two days) [%] | inhibition at 10 µM (U87-MG human glioma cell; 10 µM, two days) [%] | activity at 10 µM ([1]; 10 µM, two days) [%] | inhibition at 10 µM ([1]; 10 µM, two days) [%] | other results |
| --- | --- | --- | --- | --- | --- |
| O=C(COc1ccc2c(c1)CCC(=O)N2)N/N=C/c1ccc([N+](=O)[O-])cc1 [TR-G055, (E)-N'-(4-nitrobenzylidene)-2-((2-oxo-1,2,3,4-tetrahydroquinolin-6-yl)oxy)acetohydrazide] | 85 | 15 | 92 | 8 | – |
| O=C1CCc2cc(OC(=O)Nc3ccccc3Cl)ccc2N1 [TR-G096, 2-oxo-1,2,3,4-tetrahydroquinolin-6-yl (2-chlorophenyl)carbamate] | 75 | 25 | 70 | 30 | – |
| COc1ccccc1NC(=O)Oc1ccc2c(c1)CCC(=O)N2 [TR-G132, 2-oxo-1,2,3,4-tetrahydroquinolin-6-yl (2-methoxyphenyl)carbamate] | 78 | 22 | 73 | 27 | – |
| 2-oxo-1,2,3,4-tetrahydroquinolin-6-yl diphenylcarbamate [TR-G020] | – | – | – | – | Cell Proliferation (%) (U87-MG human glioma cell; 10 µM, two days): 72%; Inhibition (%) (U87-MG human glioma cell; 10 µM, two days): 29%; Cell Proliferation (%) ([1]; 10 µM, two days): 80%; Inhibition (%) ([1]; 10 µM, two days): 20% |
| CC(=O)CCn1cc(COc2ccc3c(c2)CCC(=O)N3)nn1 [TR-G147, 6-((1-(3-oxobutyl)-1H-1,2,3-triazol-4-yl)methoxy)-3,4-dihydroquinolin-2(1H)-one] | 89 | 11 | 122 | -22 | – |
| O=C(COc1ccc2c(c1)CCC(=O)N2)N/N=C/c1ccc(-c2ccccc2)cc1 [TR-G145, (E)-N'-([1,1'-biphenyl}-4-ylmethylene)-2-((2-oxo-1,2,3,4-tetrahydroquinolin-6-yl)oxy)acetohydrazide] | 49 | 51 | 59 | 41 | – |
| COc1ccc(S(=O)(=O)Oc2ccc3c(c2)CCC(=O)N3)cc1OC [TR-G085, 2-oxo-1,2,3,4-tetrahydroquinolin-6-yl 3,4-dimethoxybenzenesulfonate] | 53 | 47 | 71 | 29 | – |
| O=C1CCc2cc(OC(=O)c3cccc([N+](=O)[O-])c3)ccc2N1 [TR-G081, 2-oxo-1,2,3,4-tetrahydroquinolin-6-yl 3-nitrobenzoate] | 65 | 35 | 108 | -8 | – |
| CCCOc1ccc2c(c1)CCC(=O)N2 [TR-G068, 6-propoxy-3,4-dihydroquinolin-2(1H)-one] | 59 | 42 | 82 | 18 | – |
| CCCN1C(=O)CCc2cc(OCCCCc3nnnn3C3CCCCC3)ccc21 [TR-G105, 6-(4-(1-cyclohexyl-1H-tetrazol-5-yl)butoxy)-1-propyl-3,4-dihydroquinolin-2(1H)-one] | 48 | 52 | 73 | 28 | – |
| COc1ccc(C(=O)Oc2ccc3c(c2)CCC(=O)N3)cc1OC [TR-G008, 2-oxo-1,2,3,4-tetrahydroquinolin-6-yl 3,4-dimethoxybenzoate] | 63 | 37 | 65 | 35 | – |
| O=C1CCc2cc(OC(=O)CN3CCN(c4ncccn4)CC3)ccc2N1 [TR-G023, 2-oxo-1,2,3,4-tetrahydroquinolin-6-yl 2-(4-(pyrimidin-2-yl)piperazin-1-yl)acetate] | 83 | 17 | 99 | 1 | – |
| O=C(COc1ccc2c(c1)CCC(=O)N2)Nc1ccc2ncccc2c1 [TR-G089, 2-((2-oxo-1,23,4-tetrahydroquinolin-6-yl)oxy)-N-(quinolin-6-yl)acetamide] | 67 | 33 | 67 | 33 | – |
| O=C1CCc2cc(OCc3cc(-c4c(F)cccc4Cl)no3)ccc2N1 [TR-G116, 6-((3-(2-chloro-6-fluorophenyl)isoxazol-5-yl)methoxy)-3,4-dihydroquinolin-2(1H)-one] | – | 7 | – | 41 | Cell Proliferation (%) (U87-MG human glioma cell; 10 µM, two days): 93%; Cell Proliferation (%) ([1]; 10 µM, two days): 59% |
| O=C(COc1ccc2c(c1)CCC(=O)N2)N/N=C/c1ccco1 [TR-G025, (E)-N'-(furan-2-ylmethylene)-2-((2-oxo-1,2,3,4-tetrahydroquinolin-6-yl)oxy)acetohydrazide] | 75 | 25 | 90 | 10 | – |
| NNC(=O)COc1ccc2c(c1)CCC(=O)N2 [TR-G019, 2-((2-oxo-1,2,3,4-tetrahydroquinolin-6-yl)oxy)acetohydrazide] | 75 | 25 | 75 | 25 | – |
| O=C(COc1ccc2c(c1)CCC(=O)N2)Nc1ccc(F)c(Cl)c1 [TR-G075, N-(3-chloro-4-fluorophenyl)-2-((2-oxo-1,2,3,4-tetrahydroquinolin-6-yl)oxy)acetamide] | 68 | 32 | 85 | 15 | – |
| CC(=O)c1ccc(-n2cc(COc3ccc4c(c3)CCC(=O)N4)nn2)cc1 [TR-G093, 6-((1-(4-acetylphenyl)-1H-1,2,3-triazol-4-yl)methoxy)-3,4-dihydroquinolin-2(1H)-one] | 55 | 45 | 63 | 38 | – |
| CC(=O)OCC1OC(n2cc(COc3ccc4c(c3)CCC(=O)N4)nn2)[C@H](OC(C)=O)[C@@H]1OC(C)=O (stereo partly drawn) [TR-G058, (3R,4R)-2-(acetoxymethyl)-5-(4-(((2-oxo-1,2,3,4-tetrahydroquinolin-6-yl)oxy)methyl)-1H-1,2,3-triazol-1-yl)tetrahydrofuran-3,4-diyl diacetate] | 73 | 27 | 100 | 0 | – |
| C=CC(=O)N(NC(=O)COc1ccc2c(c1)CCC(=O)N2)C(=O)C=C [TR-G040, N-acryloyl-N'-(2-((2-oxo-1,2,3,4-tetrahydroquinolin-6-yl)oxy)acetyl)acrylohydrazide] | – | 9 | – | 2 | Cell Proliferation (%) (U87-MG human glioma cell; 10 µM, two days): 91%; Cell Proliferation (%) ([1]; 10 µM, two days): 98% |
| O=C1CCc2cc(OCCCCc3nnnn3C3CCCCC3)ccc2N1 [Cilostazol, reference compound] | – | – | – | – | Inhibition (%) (U87-MG human glioma cell; reference drugs): 22%; Proliferation (%) (U87-MG human glioma cell; reference drugs): 78%; Inhibition (%) ([1]; reference drugs): 12%; Proliferation (%) ([1]; reference drugs): 88% |
| O=C1CCc2cc(OCCCCc3nnnn3C3CCCCC3)ccc2N1Cc1ccc(F)cc1 [TR-G112, 6-(4-(1-cyclohexyl-1H-tetrazol-5-yl)butoxy)-1-(4-fluorobenzyl)-3,4-dihydroquinolin-2(1H)-one] | 60 | 41 | 43 | 58 | – |
| COc1cc(NC(=O)COc2ccc3c(c2)CCC(=O)N3)cc(OC)c1OC [TR-G094, 2-((2-oxo-1,2,3,4-tetrahydroquinolin-6-yl)oxy)-N-(3,4,5-trimethoxyphenyl)acetamide] | 78 | 22 | 80 | 20 | – |
| COc1ccc(C=NNC(=O)COc2ccc3c(c2)CCC(=O)N3)c(OC)c1 [TR-G022, N'-(2,4-dimethoxybenzylidene)-2-((2-oxo-1,2,3,4-tetrahydroquinolin-6-yl)oxy)acetohydrazide] | 98 | 2 | 75 | 25 | – |
| CCCC(CCC)C(=O)Oc1ccc2c(c1)CCC(=O)N2 [TR-G062, 2-oxo-1,2,3,4-tetrahydroquinolin-6-yl 2-propylpentanoate] | 87 | 13 | 87 | 13 | – |
| C=CCOC(=O)N1C(=O)CCc2cc(OCCCCc3nnnn3C3CCCCC3)ccc21 [TR-G114, Allyl 6-(4-(1-cyclohexyl-1H-tetrazol-5-yl)butoxy)-2-oxo-3,4-dihydroquinoline-1(2H)-carboxylate] | 86 | 14 | 85 | 15 | – |
| O=C1CCc2cc(OC(=O)c3cccc(F)c3)ccc2N1 [TR-G139, 2-oxo-1,2,3,4-tetrahydroquinolin-6-yl 3-flurobenzoate] | 71 | 29 | 83 | 17 | – |
| O=C(COc1ccc2c(c1)CCC(=O)N2)NN=Cc1ccc(Cl)cc1 [TR-G021, N'-(4-chlorobenzylidene)-2-((2-oxo-1,2,3,4-tetrahydroquinolin-6-yl)oxy)acetohydrazide] | 65 | 36 | 60 | 40 | – |
| O=C1CCc2cc(OS(=O)(=O)c3cccc(Cl)c3Cl)ccc2N1 [TR-G042, 2-oxo-1,2,3,4-tetrahydroquinolin-6-yl 2,3-dichlorobenzenesulfonate] | – | 31 | – | 17 | Cell Proliferation (%) (U87-MG human glioma cell; 10 µM, two days): 70%; Cell Proliferation (%) ([1]; 10 µM, two days): 83% |
